According to patent publication US20140213513A1 (Sanofi, priority 2012, published 2014):
*1 amine or outer side, *2 acyl side, *3 side chain or, on linkers, in order; H or OH if unused. Where a SMILES comes first, the peptide text is derived from it. Side-chain parts run from the residue outwards. [ ]: non-standard residue; d: D form. The star is where a group is joined. γGlu = O=C(O)[C@H](CCC(=O)[*:2])N[*:1]; Stearoyl = CCCCCCCCCCCCCCCCCC(=O)*; Palmitoyl = CCCCCCCCCCCCCCCC(=O)*; Aib = CC(C)(N)C(=O)O

Columns and labels:
Format in all cases: cell-based
Conditions in all cases: Table 7; cAMP formation
[1] = target: T1, human GLP-1 receptor (hGLP-1 R) (Homo sapiens, UniProt P43220); test: cAMP response of HEK-293 cells stably expressing human GLP-1 receptor (HTRF)
T1 construct: expressed in transfected cells
T1 sequence (P43220 24-463): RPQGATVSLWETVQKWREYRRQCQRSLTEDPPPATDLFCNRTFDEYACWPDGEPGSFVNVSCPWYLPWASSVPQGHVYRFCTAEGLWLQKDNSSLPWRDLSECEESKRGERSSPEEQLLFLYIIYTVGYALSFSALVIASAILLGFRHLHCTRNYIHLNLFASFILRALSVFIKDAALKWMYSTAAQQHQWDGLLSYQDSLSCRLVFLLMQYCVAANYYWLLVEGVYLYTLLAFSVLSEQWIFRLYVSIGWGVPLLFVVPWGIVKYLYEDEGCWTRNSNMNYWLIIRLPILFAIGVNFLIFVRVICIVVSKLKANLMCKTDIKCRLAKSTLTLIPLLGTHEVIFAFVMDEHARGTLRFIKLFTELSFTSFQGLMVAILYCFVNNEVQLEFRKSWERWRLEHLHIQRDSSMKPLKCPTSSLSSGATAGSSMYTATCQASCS
Procedure: (§1) cAMP content of cells was determined using a kit from Cisbio Corp. (cat. no. 62AM4PEC) based on HTRF (Homogenous Time Resolved Fluorescence). For preparation, cells were split into T175 culture flasks and grown overnight to near confluency in medium (DMEM/10% FBS). Medium was then removed and cells washed with PBS lacking calcium and magnesium, followed by proteinase treatment with accutase (Sigma-Aldrich cat. no. A6964). Detached cells were washed and resuspended in assay buffer (1×HBSS; 20 mM HEPES, 0.1% BSA, 2 mM IBMX) and cellular density determined. They were then diluted to 400000 cells/ml and 25 μl-aliquots dispensed into the wells of 96-well plates. For measurement, 25 μl of test compound in assay buffer was added to the wells, followed by incubation for 30 minutes at room temperature.

[2] = target: T2, human GIP receptor (hGIP R) (Homo sapiens, UniProt P48546); test: cAMP response of HEK-293 cells stably expressing human GIP receptor (HTRF)
T2 construct: expressed in transfected cells
T2 sequence (P48546 22-466): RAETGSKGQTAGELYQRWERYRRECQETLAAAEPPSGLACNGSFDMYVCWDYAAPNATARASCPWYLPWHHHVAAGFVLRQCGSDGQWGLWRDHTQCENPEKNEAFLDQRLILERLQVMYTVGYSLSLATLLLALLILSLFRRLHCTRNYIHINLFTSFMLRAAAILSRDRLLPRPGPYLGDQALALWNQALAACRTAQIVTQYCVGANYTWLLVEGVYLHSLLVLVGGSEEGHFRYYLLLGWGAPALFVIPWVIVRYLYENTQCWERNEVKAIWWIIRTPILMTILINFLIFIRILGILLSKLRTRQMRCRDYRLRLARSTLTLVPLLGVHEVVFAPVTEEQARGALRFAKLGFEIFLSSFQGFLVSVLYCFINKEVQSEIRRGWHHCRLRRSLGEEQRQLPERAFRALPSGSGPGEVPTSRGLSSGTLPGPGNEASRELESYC
Procedure: as §1

[3] = target: T3, human glucagon receptor (hGLUC R) (Homo sapiens, UniProt P47871); test: cAMP response of HEK-293 cells stably expressing human glucagon receptor (HTRF)
T3 construct: expressed in transfected cells
T3 sequence (P47871 26-477): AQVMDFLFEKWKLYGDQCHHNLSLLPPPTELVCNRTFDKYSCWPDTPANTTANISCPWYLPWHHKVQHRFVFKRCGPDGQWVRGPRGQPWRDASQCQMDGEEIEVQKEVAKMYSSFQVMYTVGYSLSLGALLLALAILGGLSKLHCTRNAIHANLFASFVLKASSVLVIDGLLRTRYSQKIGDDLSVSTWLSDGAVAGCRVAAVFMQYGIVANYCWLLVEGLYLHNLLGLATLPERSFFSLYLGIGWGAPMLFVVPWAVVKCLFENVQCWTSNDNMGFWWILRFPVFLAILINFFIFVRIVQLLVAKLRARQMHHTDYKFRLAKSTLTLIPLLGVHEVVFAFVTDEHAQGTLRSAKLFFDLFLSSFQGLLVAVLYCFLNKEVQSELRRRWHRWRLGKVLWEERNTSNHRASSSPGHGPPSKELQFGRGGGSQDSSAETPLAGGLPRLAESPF
Procedure: as §1

`CCCCCCCCCCCCCCCC(=O)N[C@@H](CCC(=O)NCCCC[C@H](NC(=O)[C@H](CCC(N)=O)NC(=O)[C@@H](NC(=O)[C@H](CO)NC(=O)[C@H](CC(C)C)NC(=O)[C@H](CC(=O)O)NC(=O)[C@H](CO)NC(=O)[C@@H](NC(=O)[C@H](Cc1ccccc1)NC(=O)[C@@H](NC(=O)CNC(=O)[C@H](CCC(N)=O)NC(=O)C(C)(C)NC(=O)[C@@H](N)Cc1ccc(O)cc1)[C@@H](C)O)[C@@H](C)O)[C@@H](C)CC)C(=O)N[C@@H](CCC(=O)O)C(=O)N[C@@H](CCCCN)C(=O)N[C@@H](CCCNC(=N)N)C(=O)NC(C)(C)C(=O)N[C@@H](C)C(=O)NC(C)(C)C(=O)N[C@@H](CCC(=O)O)C(=O)N[C@@H](Cc1ccccc1)C(=O)N[C@H](C(=O)N[C@@H](CCC(=O)O)C(=O)N[C@@H](Cc1c[nH]c2ccccc12)C(=O)N[C@@H](CC(C)C)C(=O)N[C@@H](CCCCN)C(=O)N[C@@H](CC(N)=O)C(=O)N[C@H](C(=O)NCC(=O)N1CCC[C@H]1C(=O)N[C@@H](CO)C(=O)N[C@@H](CO)C(=O)NCC(=O)N[C@@H](C)C(=O)N1CCC[C@H]1C(=O)N1CCC[C@H]1C(=O)N1CCC[C@H]1C(=O)N[C@@H](CO)C(N)=O)[C@@H](C)O)[C@@H](C)CC)C(=O)O` [SEQ ID NO: 11, Y-Aib-Q-G-T-F-T-S-D-L-S-I-Q-K(yE-x53)-E-K-R-Aib-A-Aib-E-F-I-E-W-L-K-N-T-G-P-S-S-G-A-P-P-P-S-NH2] (H-Y[Aib]QGTFTSDLSIQK([γGlu-Palmitoyl])EKR[Aib]A[Aib]EFIEWLKNTGPSSGAPPPS-NH2) was tested, and the EC50 [1] was 3.8 pM, the EC50 [2] was 14.4 pM and the EC50 [3] was 66.9 pM.

`CCCCCCCCCCCCCCCC(=O)N[C@@H](CCC(=O)NCCCC[C@H](NC(=O)[C@H](CCC(N)=O)NC(=O)[C@@H](NC(=O)[C@H](CO)NC(=O)[C@H](CC(C)C)NC(=O)[C@H](CC(=O)O)NC(=O)[C@H](CO)NC(=O)[C@@H](NC(=O)[C@H](Cc1ccccc1)NC(=O)[C@@H](NC(=O)CNC(=O)[C@H](CCC(N)=O)NC(=O)C(C)(C)NC(=O)[C@@H](N)Cc1ccc(O)cc1)[C@@H](C)O)[C@@H](C)O)[C@@H](C)CC)C(=O)N[C@@H](CCC(=O)O)C(=O)N[C@@H](CCCCN)C(=O)N[C@@H](C)C(=O)N[C@@H](C)C(=O)N[C@@H](C)C(=O)NC(C)(C)C(=O)N[C@@H](CCC(=O)O)C(=O)N[C@@H](Cc1ccccc1)C(=O)N[C@H](C(=O)N[C@@H](CCC(=O)O)C(=O)N[C@@H](Cc1c[nH]c2ccccc12)C(=O)N[C@@H](CC(C)C)C(=O)N[C@@H](CCCCN)C(=O)N[C@@H](CC(N)=O)C(=O)N[C@H](C(=O)NCC(=O)N1CCC[C@H]1C(=O)N[C@@H](CO)C(=O)N[C@@H](CO)C(=O)NCC(=O)N[C@@H](C)C(=O)N1CCC[C@H]1C(=O)N1CCC[C@H]1C(=O)N1CCC[C@H]1C(=O)N[C@@H](CO)C(N)=O)[C@@H](C)O)[C@@H](C)CC)C(=O)O` [SEQ ID NO: 12, Y-Aib-Q-G-T-F-T-S-D-L-S-I-Q-K(yE-x53)-E-K-A-A-A-Aib-EFIEWLKNTGPSSGAPPPSN H2] (H-Y[Aib]QGTFTSDLSIQK([γGlu-Palmitoyl])EKAAA[Aib]EFIEWLKNTGPSSGAPPPS-NH2) showed an EC50 [1] of 5.5 pM, an EC50 [2] of 8 pM and an EC50 [3] of 139 pM.

With `CCCCCCCCCCCCCCCC(=O)N[C@@H](CCC(=O)NCCCC[C@H](NC(=O)[C@H](CCC(N)=O)NC(=O)[C@@H](NC(=O)[C@H](CO)NC(=O)[C@H](CC(C)C)NC(=O)[C@H](CC(=O)O)NC(=O)[C@H](CO)NC(=O)[C@@H](NC(=O)[C@H](Cc1ccccc1)NC(=O)[C@@H](NC(=O)CNC(=O)[C@H](CCC(N)=O)NC(=O)C(C)(C)NC(=O)[C@@H](N)Cc1ccc(O)cc1)[C@@H](C)O)[C@@H](C)O)[C@@H](C)CC)C(=O)N[C@@H](CCC(=O)O)C(=O)N[C@@H](CCCCN)C(=O)N[C@@H](CCCNC(=N)N)C(=O)N[C@@H](Cc1ccc(O)cc1)C(=O)N[C@@H](C)C(=O)NC(C)(C)C(=O)N[C@@H](CCC(=O)O)C(=O)N[C@@H](Cc1ccccc1)C(=O)N[C@H](C(=O)N[C@@H](CCC(=O)O)C(=O)N[C@@H](Cc1c[nH]c2ccccc12)C(=O)N[C@@H](CC(C)C)C(=O)N[C@@H](CCCCN)C(=O)N[C@@H](CC(N)=O)C(=O)N[C@H](C(=O)NCC(=O)N1CCC[C@H]1C(=O)N[C@@H](CO)C(=O)N[C@@H](CO)C(=O)NCC(=O)N[C@@H](C)C(=O)N1CCC[C@H]1C(=O)N1CCC[C@H]1C(=O)N1CCC[C@H]1C(=O)N[C@@H](CO)C(N)=O)[C@@H](C)O)[C@@H](C)CC)C(=O)O` [SEQ ID NO: 13, Y-Aib-Q-G-T-F-T-S-D-L-S-I-Q-K(yE-x53)-E-K-R-Y-A-Aib-EFIEWLKNTGPSSGAPPPSN H2] (H-Y[Aib]QGTFTSDLSIQK([γGlu-Palmitoyl])EKRYA[Aib]EFIEWLKNTGPSSGAPPPS-NH2) the EC50 [1] was 14.1 pM, the EC50 [2] was 26.3 pM and the EC50 [3] was 20.2 pM.

With `CCCCCCCCCCCCCCCC(=O)N[C@@H](CCC(=O)NCCCC[C@H](NC(=O)[C@H](CCC(N)=O)NC(=O)[C@@H](NC(=O)[C@H](CO)NC(=O)[C@H](CC(C)C)NC(=O)[C@H](CC(=O)O)NC(=O)[C@H](CO)NC(=O)[C@@H](NC(=O)[C@H](Cc1ccccc1)NC(=O)[C@@H](NC(=O)CNC(=O)[C@H](CCC(N)=O)NC(=O)C(C)(C)NC(=O)[C@@H](N)Cc1ccc(O)cc1)[C@@H](C)O)[C@@H](C)O)[C@@H](C)CC)C(=O)N[C@@H](CCC(=O)O)C(=O)N[C@@H](CCC(N)=O)C(=O)N[C@@H](CCCNC(=N)N)C(=O)N[C@@H](C)C(=O)N[C@@H](C)C(=O)NC(C)(C)C(=O)N[C@@H](CCC(=O)O)C(=O)N[C@@H](Cc1ccccc1)C(=O)N[C@H](C(=O)N[C@@H](CCC(=O)O)C(=O)N[C@@H](Cc1c[nH]c2ccccc12)C(=O)N[C@@H](CC(C)C)C(=O)N[C@@H](CCCCN)C(=O)N[C@@H](CC(N)=O)C(=O)N[C@H](C(=O)NCC(=O)N1CCC[C@H]1C(=O)N[C@@H](CO)C(=O)N[C@@H](CO)C(=O)NCC(=O)N[C@@H](C)C(=O)N1CCC[C@H]1C(=O)N1CCC[C@H]1C(=O)N1CCC[C@H]1C(=O)N[C@@H](CO)C(N)=O)[C@@H](C)O)[C@@H](C)CC)C(=O)O` [SEQ ID NO: 15, Y-Aib-Q-G-T-F-T-S-D-L-S-I-Q-K(yE-x53)-E-Q- R-A-A-Aib-E-F-I-E-W-L-K-N-T-G-P-S-S-G-A-P-P-P-S-NH2] (H-Y[Aib]QGTFTSDLSIQK([γGlu-Palmitoyl])EQRAA[Aib]EFIEWLKNTGPSSGAPPPS-NH2) the EC50 [1] was 6.9 pM, the EC50 [2] was 11.4 pM and the EC50 [3] was 54 pM.

`CCCCCCCCCCCCCCCCCC(=O)N[C@@H](CCC(=O)NCCCC[C@H](NC(=O)[C@H](CCC(N)=O)NC(=O)[C@@H](NC(=O)[C@H](CO)NC(=O)[C@H](CC(C)C)NC(=O)[C@H](CC(=O)O)NC(=O)[C@H](CO)NC(=O)[C@@H](NC(=O)[C@H](Cc1ccccc1)NC(=O)[C@@H](NC(=O)CNC(=O)[C@H](CCC(=O)O)NC(=O)C(C)(C)NC(=O)[C@@H](N)Cc1ccc(O)cc1)[C@@H](C)O)[C@@H](C)O)[C@@H](C)CC)C(=O)N[C@@H](CCC(=O)O)C(=O)N[C@@H](CO)C(=O)N[C@@H](CCCCN)C(=O)N[C@@H](C)C(=O)N[C@@H](C)C(=O)NC(C)(C)C(=O)N[C@@H](CCC(=O)O)C(=O)N[C@@H](Cc1ccccc1)C(=O)N[C@H](C(=O)N[C@@H](CCC(=O)O)C(=O)N[C@@H](Cc1c[nH]c2ccccc12)C(=O)N[C@@H](CC(C)C)C(=O)N[C@@H](CCCCN)C(=O)N[C@@H](C)C(=O)NCC(=O)NCC(=O)N1CCC[C@H]1C(=O)N[C@@H](CO)C(=O)N[C@@H](CO)C(=O)NCC(=O)N[C@@H](C)C(=O)N1CCC[C@H]1C(=O)N1CCC[C@H]1C(=O)N1CCC[C@H]1C(=O)N[C@@H](CO)C(=O)N[C@@H](CCCCN)C(N)=O)[C@@H](C)CC)C(=O)O` [SEQ ID NO: 16, Y-Aib-E-G-T-F-T-S-D-L-S-I-Q-K(yE-x70)-E-S-K-A-A-Aib-EFIEWLKAGGPSSGAPPPSK-NH2] (H-Y[Aib]EGTFTSDLSIQK([γGlu-Stearoyl])ESKAA[Aib]EFIEWLKAGGPSSGAPPPSK-NH2) gave an EC50 [1] of 7 pM, an EC50 [2] of 15.6 pM and an EC50 [3] of 17000 pM.
